Tested on: SARS-CoV-2 P2 strain
Parameters: species or system C57BL/6 (WT) mice
Details: mouse, in vivo

With `CC(C)c1nc(CN(C)C(=O)N[C@H](C(=O)N[C@@H](Cc2ccccc2)C[C@H](O)[C@H](Cc2ccccc2)NC(=O)OCc2cncs2)C(C)C)cs1` [ritonavir, reference compound] the “antiviral activity (lung viral burden), mild model” value was “no antiviral activity”.
